Columns and labels:
[1] = mn = molality of the nth substance listed, in mol/kg; details: 86.5 kPa, Liquid; for speed of sound: Frequency=3 MHz, Sing-around technique in a fixed-path interferometer; for mass density: Vibrating tube method
[2] = refractive index (Na D-line) (dimensionless); mn = molality of the nth substance listed, in mol/kg; details: 86.5 kPa, Liquid, Standard Abbe refractometry

CCCCCCCCn1cc[n+](C)c1.[Br-] [1-methyl-3-octylimidazolium bromide] + c1ccsc1
Details	mass density, [1] [kg/m3]	refractive index, [2]	speed of sound, [1] [m/s]
288.15 K, m2 = 0	1179.37	1.525	1605.2
288.15 K, m2 = 0.0087	1179.17	1.5248	1603.7
288.15 K, m2 = 0.022	1178.88	1.5245	1601.5
288.15 K, m2 = 0.032	1178.66	1.5242	1599.9
288.15 K, m2 = 0.0435	1178.43	1.524	1598.3
288.15 K, m2 = 0.0556	1178.18	1.5238	1596.8
288.15 K, m2 = 0.0663	1177.97	1.5235	1595.7
288.15 K, m2 = 0.0821	1177.68	1.5232	1594.3
288.15 K, m2 = 0.0923	1177.49	1.5229	1593.4
288.15 K, m2 = 0.107	1177.22	1.5226	1592.3
288.15 K, m2 = 0.1464	1176.57	1.5221	1590.2
288.15 K, m2 = 0.1765	1176.08	1.5216	1588.8
293.15 K, m2 = 0	1176.17	1.5236	1581.9
293.15 K, m2 = 0.0087	1175.97	1.5233	1581
293.15 K, m2 = 0.022	1175.68	1.5231	1579.5
293.15 K, m2 = 0.032	1175.46	1.5228	1578.6
293.15 K, m2 = 0.0435	1175.23	1.5226	1577.6
293.15 K, m2 = 0.0556	1174.97	1.5223	1576.5
293.15 K, m2 = 0.0663	1174.75	1.522	1575.7
293.15 K, m2 = 0.0821	1174.47	1.5217	1574.6
293.15 K, m2 = 0.0923	1174.27	1.5214	1573.8
293.15 K, m2 = 0.107	1174.01	1.5211	1572.9
293.15 K, m2 = 0.1464	1173.34	1.5205	1571.1
293.15 K, m2 = 0.1765	1172.85	1.52	1570.2
298.15 K, m2 = 0	1172.98	1.5221	1561.9
298.15 K, m2 = 0.0087	1172.78	1.5219	1561.3
298.15 K, m2 = 0.022	1172.48	1.5216	1560.3
298.15 K, m2 = 0.032	1172.27	1.5213	1559.7
298.15 K, m2 = 0.0435	1172.02	1.521	1558.9
298.15 K, m2 = 0.0556	1171.78	1.5207	1558.2
298.15 K, m2 = 0.0663	1171.57	1.5203	1557.5
298.15 K, m2 = 0.0821	1171.26	1.52	1556.5
298.15 K, m2 = 0.0923	1171.07	1.5197	1555.9
298.15 K, m2 = 0.107	1170.8	1.5193	1555.1
298.15 K, m2 = 0.1464	1170.16	1.5187	1553.5
298.15 K, m2 = 0.1765	1169.7	1.5181	1552.3
303.15 K, m2 = 0	1169.86	1.5206	1542.8
303.15 K, m2 = 0.0087	1169.65	1.5205	1542.3
303.15 K, m2 = 0.022	1169.35	1.5202	1541.6
303.15 K, m2 = 0.032	1169.13	1.5199	1541.1
303.15 K, m2 = 0.0435	1168.88	1.5196	1540.7
303.15 K, m2 = 0.0556	1168.64	1.5192	1540.1
303.15 K, m2 = 0.0663	1168.42	1.5189	1539.6
303.15 K, m2 = 0.0821	1168.12	1.5185	1539.1
303.15 K, m2 = 0.0923	1167.93	1.5182	1538.5
303.15 K, m2 = 0.107	1167.67	1.5179	1538
303.15 K, m2 = 0.1464	1167.05	1.5171	1536.6
303.15 K, m2 = 0.1765	1166.59	1.5166	1535.7

From the NIST ThermoML archive (doi:10.1016/j.jct.2015.12.031)
